Laboratory results reported in BindingDB's records for doi:10.1021/bi050490d (Case Western Reserve University, 2005).

Target: Kappa-type opioid receptor (Homo sapiens, UniProt P41145)
Sequence (P41145 whole entry): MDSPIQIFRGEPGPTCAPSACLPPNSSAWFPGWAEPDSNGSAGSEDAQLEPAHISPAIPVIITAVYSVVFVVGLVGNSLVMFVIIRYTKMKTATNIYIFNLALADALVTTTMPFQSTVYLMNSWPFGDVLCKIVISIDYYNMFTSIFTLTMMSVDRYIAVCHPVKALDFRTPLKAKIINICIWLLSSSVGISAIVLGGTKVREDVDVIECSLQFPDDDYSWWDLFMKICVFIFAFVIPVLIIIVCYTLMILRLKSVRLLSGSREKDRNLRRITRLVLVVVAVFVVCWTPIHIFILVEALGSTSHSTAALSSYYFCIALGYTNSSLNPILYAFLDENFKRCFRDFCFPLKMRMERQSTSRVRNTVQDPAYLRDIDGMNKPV

Compound: CC[C@H](C)[C@H](NC(=O)[C@H](CCCNC(=N)N)NC(=O)[C@H](CCCNC(=N)N)NC(=O)[C@H](CC(C)C)NC(=O)[C@H](Cc1ccccc1)NC(=O)CNC(=O)CNC(=O)[C@@H](N)Cc1ccc(O)cc1)C(=O)N[C@@H](CCCNC(=N)N)C(=O)N1CCC[C@H]1C(=O)N[C@@H](CCCCN)C(=O)N[C@@H](CC(C)C)C(=O)N[C@@H](CCCCN)C(=O)O [Dynorphin A (1-13)]
- Ki: 0.343 µM
